Measured values published in patent US5916759A, “Cholesterol oxidase from Brevibacterium sterolicum” (Boehringer Mannheim GmbH, priority 1993, dated 1999).

B1: cholesterol oxidase from Brevibacterium sterolicum, SEQ ID NO 2 (Brevibacterium sterolicum) (protein)
chain: STGPVAPLPTPPNFPNDIALFQQAYQNWSKEIMLDATWVCSPKTPQDVVRLANWAHEHDYKIRPRGAMHGWTPLTVEKGANVEKVILADTMTHLNGITVNTGGPVATVTAGAGASIEAIVTELQKHDLGWANLPAPGVLSIGGALAVNAHGAALPAVGQTTLPGHTYGSLSNLVTELTAVVWNGTTYALETYQRNDPRITPLLTNLGRCFLTSVTMQAGPNFRQRCQSYTDIPWRELFAPKGADGRTFEKFVAESGGAEAIWYPFTEKPWMKVWTVSPTKPDSSNEVGSLGSAGSLVGKPPQAREVSGPYNYIFSDNLPEPITDMIGAINAGNPGIAPLFGPAMYEITKLGLAATNANDIWGWSKDVQFYIKATTLRLTEGGGAVVTSRANIATVINDFTEWFHERIEFYRAKGEFPLNGPVEIRCCGLDQAADVKVPSVGPPTISATRPRPDHPDWDVAIWLNVLGVPGTPGMFEFYREMEQWMRSHYNNDDATFRPEWSKGWAFGPDPYTDNDIVTNKMRATYIEGVPTTENWDTARARYNQIDPHRVFTNGFMDKLLP

Experiments:
[1] = molecular target: Cholesterol oxidase I from Brevibacterium sterolicum (Brevibacterium sterolicum, UniProt P22637); conditions: read-out: KM (affinity for cholesterol); cited from earlier work
Cholesterol oxidase I from Brevibacterium sterolicum, sequence (P22637 46-552): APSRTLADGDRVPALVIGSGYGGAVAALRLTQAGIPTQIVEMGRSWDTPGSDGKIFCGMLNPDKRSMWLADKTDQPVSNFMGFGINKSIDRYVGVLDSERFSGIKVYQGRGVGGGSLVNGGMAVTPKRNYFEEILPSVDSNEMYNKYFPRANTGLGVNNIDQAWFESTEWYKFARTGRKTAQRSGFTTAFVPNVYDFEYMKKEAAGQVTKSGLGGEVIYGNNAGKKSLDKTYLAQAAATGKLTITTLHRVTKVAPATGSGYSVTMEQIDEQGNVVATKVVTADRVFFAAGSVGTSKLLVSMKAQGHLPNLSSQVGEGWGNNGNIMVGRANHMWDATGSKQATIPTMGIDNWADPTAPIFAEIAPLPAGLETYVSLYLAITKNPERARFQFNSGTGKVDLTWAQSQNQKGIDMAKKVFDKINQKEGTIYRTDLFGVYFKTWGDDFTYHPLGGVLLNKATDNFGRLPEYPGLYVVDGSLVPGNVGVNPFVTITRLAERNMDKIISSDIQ

[2] = substrate: CC(C)CCC[C@@H](C)[C@H]1CC[C@H]2[C@@H]3CC=C4C[C@@H](O)CC[C@]4(C)[C@H]3CC[C@]12C; assay: KM value for cholesterol of the cholesterol oxidase according to the invention; type: biochemical, Brevibacterium sterolicum; conditions: other: in 0.5 mol/l potassium phosphate buffer pH 7.5 at 25° C.
Experimental: This cholesterol oxidase has a molecular weight of 60 kD, an isoelectric point of ca. 5.5 (each measured in the Phast System, Pharmacia LKB) and a KM value for cholesterol of 1×10^-4 mol/l (in 0.5 mol/l potassium phosphate buffer pH 7.5 at 25° C.) and is active in a pH range of 5.5 to 8.0.
3 ml potassium phosphate buffer (0.5 mol/l, pH 7.5) containing 0.4% Thesit® (Boehringer Mannheim GmbH, Catalogue No. 006190),
0.1 ml cholesterol solution (0.4% cholesterol, 10% l-propanol, 10% Thesit®),
0.02 ml H2 O2 (0.49 mol/l in redistilled water), it is mixed, after addition of 0.02 ml catalase (from bovine liver, 20 mg protein/ml, specific activity ca. 65,000 U/mg, Boehringer Mannheim GmbH, Catalogue No. 0156744 diluted immediately to 0.075-0.15 U/ml before measurement with ice-cold potassium phosphate buffer, containing 0.4% Thesit) it is again mixed, the solution is brought to a temperature of 25° C. and subsequently the reaction is started by addition of 0.05 ml sample solution. After careful mixing the change in absorbance at 240 nm is monitored and the activity of cholesterol oxidase is determined from the linear region of the absorbance curve: [formula] in which .di-elect cons. 240=15.5 mmol^-1 ×1×cm^-1.

Row | Molecule | Km [1] [µM] | Km [2] [µM]
1 | CC(C)CCC[C@@H](C)[C@H]1CC[C@H]2[C@@H]3CC=C4C[C@@H](O)CC[C@]4(C)[C@H]3CC[C@]12C [cholesterol, 5-cholesten-3-β-ol] | 1100 | 
2 | B1 |  | 100
